Results reported in patent US20260373135A1, “Methods of Treatment with Tradipitant” (Vanda Pharmaceuticals Inc., priority 2022, published 2026).

Key:
[1] = test system: NK-1 receptors; conditions: preclinical and clinical studies; cited from earlier work
[2] = Human metabolism of tradipitant in vitro and in vivo
Excerpt: Factors affecting metabolic clearance of tradipitant and its metabolites impact an individual's exposure to the parent compound, as well as any active metabolites.

Question: What does the source list for `O=C(c1ccccc1Cl)c1cccnc1-c1nnn(Cc2cc(C(F)(F)F)cc(C(F)(F)F)c2)c1-c1ccncc1` [tradipitant, {2-[1-(3,5-Bistrifluoromethylbenzyl)-5-pyridin-4-yl-1H-[1,2,3]triazol-4-yl]-pyridin-3-yl}-(2-chlorophenyl)-methanone]?
Answer: blockade of brain NK-1 receptors [1]: long-lasting blockade of brain NK-1 receptors; human metabolic pathways [2]: ketone reduction (metabolites M2, M4), N-glucuronidation (metabolite M8), pyridine N-oxidation (metabolites M3, M4), and glucuronidation (metabolite M8)
